Experimental data reported in patent publication EP0334146A1, “Morpholines and morpholine-N-oxides, medicines containing these compounds and process for their preparation” (Dr. Karl Thomae GmbH, priority 1988, dated 1989).

Test system: Mäusen
Assay: Cardiac side effects: heart rate by ECG-triggered tachograph during the blood glucose test
Assay type: in vivo
Conditions: Dose 3,0 mg/kg oral; one hour after application; values in brackets = not significant (p > 0.05)
Source text: Das Auftreten von unerwünschten Nebenwirkungen auf das Herz konnte für die erfindungsgemäßen Verbindungen für den therapeutisch angestrebten stoffwechselaktiven Dosisbereich ausgeschlossen werden. Als Nachweis diente die Messung der Herzfrequenz an Mäusen während der Testung auf blutzuckersenkende Wirkung (s.o.). Eine Stunde nach der oralen Applikation der Verbindungen wurde die Herzfrequenz mittels EKG-getriggertem Tachographen bestimmt. Die nachfolgende Tabelle gibt die Änderung der Herzfrequenz in % der Kontrollgruppe wieder.

`CC(Cc1ccc(OCC(=O)O)cc1)N1CCOC(c2cccc(Cl)n2)C1` (stereo not shown) [Beispiel 4, N-[2-(4-Carboxymethoxyphenyl)-1-methylethyl]-2-(6-chlor-pyridin-2-yl)-morpholin] was tested, and the “Änderung der Herzfrequenz, % Änderung vom Wert der Kontrollgruppe” value was “( 0 ) %”.
